≈ marks a conversion by molar mass, not a printed value. Calls of active or inactive are those of the source. No cut-off for these calls is given here.
Key:
[1] = test system: A549; experiment: Induction of apoptosis in human A549 cells assessed as mitochondrial depolarization at 50 ug/ml after 48 hrs by JC-1 staining based fluorescence microscopy; type: functional, cell-based
[2] = test system: A549; experiment: Induction of apoptosis in human A549 cells assessed as early apoptotic cells at 50 ug/mL after 48 hrs by Annexin V-FITC/propidium iodide staining based flow cytometry (reference value: 4.57 %); type: functional
[3] = test system: A549; experiment: Induction of apoptosis in human A549 cells assessed as viable cells at 50 ug/mL after 48 hrs by Annexin V-FITC/propidium iodide staining based flow cytometry (reference value: 91.46 %); type: functional; details: A549, 48 h, read-out: Activity
[4] = test system: A549; experiment: Induction of apoptosis in human A549 cells assessed as necrotic cells at 50 ug/mL after 48 hrs by Annexin V-FITC/propidium iodide staining based flow cytometry (reference value: 0.59 %); type: functional
[5] = test system: A549; experiment: Cytotoxicity against human A549 cells assessed as decrease in viable cells after 48 hrs by CCK-8 assay; type: functional, cell-based; details: for IC50: A549, 48 h
[6] = test system: A549; experiment: Induction of apoptosis in human A549 cells assessed as chromatin condensation at 50 ug/mL after 48 hrs by Hoechst-33258 staining based fluorescence microscopy; type: functional, cell-based
[7] = test system: A549; experiment: Induction of apoptosis in human A549 cells assessed as loss of mitochondrial membrane potential by measuring ratio of red to green fluorescence at 50 ug/ml after 48 hrs by JC-1 staining based flow cytometry (reference value: 28.9); type: functional
[8] = test system: A549; experiment: Induction of apoptosis in human A549 cells assessed as mitochondrial membrane potential at 50 ug/ml after 48 hrs by JC-1 staining based flow cytometry (reference value: 96.66%); type: functional
[9] = test system: A549; experiment: Cytotoxicity against human A549 cells assessed as decrease in viable cells at 60 ug/mL after 48 hrs by CCK-8 assay; type: functional
[10] = test system: A549; experiment: Induction of apoptosis in human A549 cells assessed as round and shrunken cells at 50 ug/mL after 48 hrs by inverted microscopy; type: functional, cell-based
[11] = test system: A549; experiment: Induction of apoptosis in human A549 cells assessed as late apoptotic cells at 50 ug/mL after 48 hrs by Annexin V-FITC/propidium iodide staining based flow cytometry (reference value: 3.38 %); type: functional
[12] = test system: A549; experiment: Induction of apoptosis in human A549 cells assessed as increase in detached cells at 50 ug/ml after 48 hrs by inverted microscopy; type: functional, cell-based

Row | Structure (SMILES) | Activity [5] | IC50 [5] | Activity [9] | other results
1 | CC(C)=CCC[C@](C)(O)[C@@H]1CC[C@@]2(C)[C@H]1[C@@H](O)C[C@H]1[C@]3(C)C[C@H](O)[C@@H](O[C@H]4O[C@@H](CO)[C@H](O)[C@@H](O)[C@@H]4O)C(C)(C)[C@H]3CC[C@@]12C | Dose-dependent effect | 74.3 µg/mL (≈ 116 µM) | 44.7% | Activity [1]: Active; Activity [2]: 14.34%; viability at 50 µg/mL [3]: 81.5%; Activity [4]: 1.44%; Activity [6]: Active; Ratio [7]: 8.7; Activity [8]: 89.64%; Activity [10]: Active; Activity [11]: 2.74%; Activity [12]: Active
2 | CC(C)=CC/C=C(/C)[C@H]1CC[C@]2(C)[C@@H]1[C@H](O)C[C@@H]1[C@@]3(C)C[C@@H](O)[C@H](O[C@@H]4O[C@H](CO)[C@@H](O)[C@H](O)[C@H]4O[C@@H]4O[C@H](CO)[C@@H](O)[C@H](O)[C@H]4O)C(C)(C)[C@@H]3CC[C@]12C | – | 29 µg/mL (≈ 37 µM) | – | –
3 | CC(C)=CCC[C@@](C)(O)[C@H]1CC[C@]2(C)[C@@H]1[C@H](O)C[C@@H]1[C@@]3(C)C[C@@H](O)[C@H](O[C@@H]4O[C@H](CO)[C@@H](O)[C@H](O)[C@H]4O[C@@H]4O[C@H](CO)[C@@H](O)[C@H](O)[C@H]4O)C(C)(C)[C@@H]3CC[C@]12C | Dose-dependent effect | 91 µg/mL (≈ 114 µM) | 30% | –
4 | C=C(CCC=C(C)C)[C@H]1CC[C@]2(C)[C@@H]1[C@H](O)C[C@@H]1[C@@]3(C)C[C@@H](O)[C@H](O[C@@H]4O[C@H](CO)[C@@H](O)[C@H](O)[C@H]4O[C@@H]4O[C@H](COC(C)=O)[C@@H](O)[C@H](O)[C@H]4O)C(C)(C)[C@@H]3CC[C@]12C | – | 40.4 µg/mL (≈ 49 µM) | – | –
5 | CC(=O)OC[C@H]1O[C@@H](O[C@H]2[C@H](O[C@H]3[C@H](O)C[C@]4(C)[C@H]5C[C@@H](O)[C@@H]6[C@@H](/C(C)=C\CC=C(C)C)CC[C@@]6(C)[C@]5(C)CC[C@H]4C3(C)C)O[C@H](CO)[C@@H](O)[C@@H]2O)[C@H](O)[C@@H](O)[C@@H]1O | – | 61.2 µg/mL (≈ 74.2 µM) | – | –
6 | C=C(CCC=C(C)C)[C@H]1CC[C@]2(C)[C@@H]1[C@H](O)C[C@@H]1[C@@]3(C)C[C@@H](O)[C@H](O[C@@H]4O[C@H](CO)[C@@H](O)[C@H](O)[C@H]4O[C@@H]4O[C@H](CO)[C@@H](O)[C@H](O)[C@H]4O)C(C)(C)[C@@H]3CC[C@]12C [DAMULIN B] | – | 23.8 µg/mL (≈ 30.4 µM) | – | –
7 | CC(C)=CCC[C@](C)(O)[C@H]1CC[C@]2(C)[C@@H]1[C@H](O)C[C@@H]1[C@@]3(C)C[C@@H](O)[C@H](O[C@@H]4O[C@H](CO)[C@@H](O)[C@H](O)[C@H]4O[C@@H]4O[C@H](CO)[C@@H](O)[C@H](O)[C@H]4O)C(C)(C)[C@@H]3CC[C@]12C | Dose-dependent effect | 78.6 µg/mL (≈ 98.1 µM) | 37.2% | –
8 | CC(C)=CCC[C@@](C)(O[C@@H]1O[C@H](CO)[C@@H](O)[C@H](O)[C@H]1O)[C@@H]1CC[C@@]2(C)[C@H]1[C@@H](O)C[C@H]1[C@]3(C)C[C@H](O)[C@@H](O[C@H]4O[C@@H](CO)[C@H](O)[C@@H](O)[C@@H]4O[C@H]4O[C@@H](CO)[C@H](O)[C@@H](O)[C@@H]4O)C(C)(C)[C@H]3CC[C@@]12C | – | 112 µg/mL (≈ 116 µM) | – | –
9 | CC(C)=CCC[C@@](C)(O[C@@H]1O[C@H](CO[C@H]2OC[C@H](O)[C@@H](O)[C@@H]2O)[C@@H](O)[C@H](O)[C@H]1O)[C@@H]1CC[C@@]2(C)[C@H]1[C@@H](O)C[C@H]1[C@]3(C)C[C@H](O)[C@@H](O[C@H]4O[C@@H](CO)[C@H](O)[C@@H](O)[C@@H]4O[C@H]4O[C@@H](CO)[C@H](O)[C@@H](O)[C@@H]4O)C(C)(C)[C@H]3CC[C@@]12C | – | 168 µg/mL (≈ 153 µM) | – | –

From ChEMBL document CHEMBL3779811, “A new dammarane-type saponin from Gynostemma pentaphyllum induces apoptosis in A549 human lung carcinoma cells” (Bioorg Med Chem Lett, 2016)
